These results are taken from PMC2586337 (Biochemistry, 2008).

In test [1] the target is T1, primase (UL5/UL8/UL52) (Human herpesvirus 1, UniProt P10236). Description: Incorporation of nucleotides as the 5′-terminal nucleotide of the primer. Type of test: biochemical, herpes simplex virus I.
Test [2] deals with T1, primase (UL5/UL8/UL52). Description: Polymerization of nucleoside triphosphates onto a RNA primer:DNA template. Type of test: biochemical, herpes simplex virus I. Conditions: for VMax: primer:template DNAT, DNAC or DNAG; for Km: primer:template with next correct NTP: DNAT (ATP), DNAC (GTP), DNAG (CTP).
The target of test [3] is T1, primase (UL5/UL8/UL52). Nature of the test: Incorporation of nucleotides as the second nucleotide of the primer. Type of test: biochemical, herpes simplex virus I.
Test [4] addresses T1, primase (UL5/UL8/UL52). Nature of the test: Primer synthesis on d. Conditions: for incorporation by primase opposite template dG (new products of altered mobility): template d(GTCT)15, ATP, 800 μM analogue; for incorporation by primase opposite template dG (new products of altered mobility) / primers elongated after incorporation of the nucleotide: GTP; for chain termination after incorporation: template d(GTCT)15, ATP and GTP; for primers elongated after incorporation of the nucleotide: 800 μM ATP. Type of test: biochemical, herpes simplex virus I.

The target of test [5] is T1, primase (UL5/UL8/UL52). Description: Inhibition of NTP polymerization onto primer:templates. Type of test: biochemical. Particulars: for type of inhibition with respect to GTP incorporation: data not shown.
Test [6] concerns the target T1, primase (UL5/UL8/UL52). Type of test: biochemical, herpes simplex virus I.
Setting [7] is: inhibition of ATP polymerization, ATP (100 μM), DNAT.
The mark [8] stands for this setting: inhibition of GTP polymerization, 800 μM GTP, DNAC.
The mark [9] stands for this setting: inhibition of GTP polymerization, GTP (100 μM), DNAC.
Where [10] appears, read: IC50, inhibition of GTP polymerization, 800 μM GTP, DNAC.

Like-named read-outs stand apart in the source and are kept apart here.

T1 sequence (P10189 whole entry): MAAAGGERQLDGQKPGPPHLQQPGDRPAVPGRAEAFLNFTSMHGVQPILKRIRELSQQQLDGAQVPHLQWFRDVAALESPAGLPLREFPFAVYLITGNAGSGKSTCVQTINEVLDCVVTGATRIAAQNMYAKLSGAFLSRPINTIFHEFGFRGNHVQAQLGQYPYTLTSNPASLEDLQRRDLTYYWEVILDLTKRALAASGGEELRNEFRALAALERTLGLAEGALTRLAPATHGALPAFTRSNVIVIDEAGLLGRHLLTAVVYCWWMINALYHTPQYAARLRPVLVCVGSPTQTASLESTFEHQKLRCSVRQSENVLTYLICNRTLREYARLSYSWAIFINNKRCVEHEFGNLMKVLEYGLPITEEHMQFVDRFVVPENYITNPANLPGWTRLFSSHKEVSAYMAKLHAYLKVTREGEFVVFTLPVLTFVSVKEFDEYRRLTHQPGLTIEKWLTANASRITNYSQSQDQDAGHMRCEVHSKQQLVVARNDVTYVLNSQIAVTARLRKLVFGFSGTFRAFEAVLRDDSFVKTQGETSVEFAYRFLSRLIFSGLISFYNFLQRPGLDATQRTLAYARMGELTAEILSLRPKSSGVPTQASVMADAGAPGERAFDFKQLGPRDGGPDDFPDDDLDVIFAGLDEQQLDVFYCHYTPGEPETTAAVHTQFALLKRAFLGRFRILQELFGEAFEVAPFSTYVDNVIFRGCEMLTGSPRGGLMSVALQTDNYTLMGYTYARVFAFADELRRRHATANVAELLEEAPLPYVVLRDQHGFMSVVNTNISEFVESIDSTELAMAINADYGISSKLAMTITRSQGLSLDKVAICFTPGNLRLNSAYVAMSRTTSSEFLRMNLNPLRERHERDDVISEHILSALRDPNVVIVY
T1 sequence (P10192 whole entry, further chain): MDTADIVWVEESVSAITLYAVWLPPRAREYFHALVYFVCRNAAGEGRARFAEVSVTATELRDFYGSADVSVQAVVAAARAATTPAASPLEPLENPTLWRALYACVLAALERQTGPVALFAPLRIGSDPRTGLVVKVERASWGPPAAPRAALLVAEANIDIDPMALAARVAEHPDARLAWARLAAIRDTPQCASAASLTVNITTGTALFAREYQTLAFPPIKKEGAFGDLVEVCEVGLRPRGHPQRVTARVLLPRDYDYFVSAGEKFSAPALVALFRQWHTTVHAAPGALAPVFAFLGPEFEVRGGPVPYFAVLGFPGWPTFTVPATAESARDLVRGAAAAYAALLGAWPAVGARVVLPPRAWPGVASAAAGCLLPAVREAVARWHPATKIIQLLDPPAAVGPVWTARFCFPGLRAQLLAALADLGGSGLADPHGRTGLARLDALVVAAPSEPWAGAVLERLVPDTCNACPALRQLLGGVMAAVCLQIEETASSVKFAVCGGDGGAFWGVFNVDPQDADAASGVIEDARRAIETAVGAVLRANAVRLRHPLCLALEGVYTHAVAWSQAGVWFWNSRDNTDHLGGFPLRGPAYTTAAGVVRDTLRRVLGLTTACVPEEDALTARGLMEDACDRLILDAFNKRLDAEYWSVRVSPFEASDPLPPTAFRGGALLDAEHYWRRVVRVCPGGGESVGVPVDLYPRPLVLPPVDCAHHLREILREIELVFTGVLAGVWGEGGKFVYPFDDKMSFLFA
T1 sequence (P10236 whole entry): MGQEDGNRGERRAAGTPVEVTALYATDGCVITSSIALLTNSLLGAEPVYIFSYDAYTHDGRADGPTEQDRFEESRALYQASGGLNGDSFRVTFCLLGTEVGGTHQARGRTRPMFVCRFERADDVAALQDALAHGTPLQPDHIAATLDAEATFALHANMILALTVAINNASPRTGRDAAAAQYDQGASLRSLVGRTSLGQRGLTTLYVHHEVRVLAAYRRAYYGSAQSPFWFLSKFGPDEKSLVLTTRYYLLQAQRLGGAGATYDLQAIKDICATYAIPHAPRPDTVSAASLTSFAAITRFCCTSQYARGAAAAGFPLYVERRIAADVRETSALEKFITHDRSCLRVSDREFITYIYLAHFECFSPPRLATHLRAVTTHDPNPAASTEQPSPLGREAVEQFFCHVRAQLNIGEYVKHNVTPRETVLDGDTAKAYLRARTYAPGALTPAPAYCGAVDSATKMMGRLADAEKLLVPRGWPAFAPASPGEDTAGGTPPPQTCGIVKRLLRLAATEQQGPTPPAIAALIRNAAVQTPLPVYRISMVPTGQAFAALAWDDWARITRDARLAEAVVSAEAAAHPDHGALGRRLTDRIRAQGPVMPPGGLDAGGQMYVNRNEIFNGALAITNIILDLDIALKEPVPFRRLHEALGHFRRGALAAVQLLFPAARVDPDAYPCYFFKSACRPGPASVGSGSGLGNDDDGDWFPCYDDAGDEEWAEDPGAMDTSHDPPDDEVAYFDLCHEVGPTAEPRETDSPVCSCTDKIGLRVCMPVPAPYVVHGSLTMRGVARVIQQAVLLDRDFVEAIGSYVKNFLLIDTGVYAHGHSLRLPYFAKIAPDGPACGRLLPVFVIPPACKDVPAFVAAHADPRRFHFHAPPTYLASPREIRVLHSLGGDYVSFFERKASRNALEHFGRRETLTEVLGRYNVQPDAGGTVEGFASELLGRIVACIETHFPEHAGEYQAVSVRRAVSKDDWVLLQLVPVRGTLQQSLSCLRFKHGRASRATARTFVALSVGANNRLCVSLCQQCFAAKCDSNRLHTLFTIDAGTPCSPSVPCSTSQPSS

A word on the Km: it is the concentration of substrate that gives half-maximal velocity. Turning to `Nc1ncnc2c1ncn2[C@H]1C[C@H](O)[C@@H](COP(=O)(O)OP(=O)(O)OP(=O)(O)O)O1` [2′-dATP], the VMax at primase (UL5/UL8/UL52) [1] was 20 ± 1.1 pmol/min; on primase (UL5/UL8/UL52) [2], 0.024 ± 0.06 pmol/h; at primase (UL5/UL8/UL52) [3], over 10 pmol/min. Further, the Michaelis-Menten constant (Km) at primase (UL5/UL8/UL52) [2] stood at 770 ± 370 µM.
As to `Nc1ccn([C@H]2C[C@H](O)[C@@H](COP(=O)(O)OP(=O)(O)OP(=O)(O)O)O2)c(=O)n1` [2′-dCTP], on primase (UL5/UL8/UL52) [2], the VMax was determined as 0.16 ± 0.036 pmol/h and the Km turned out to be 640 ± 360 µM. Further, at primase (UL5/UL8/UL52) [4], the “incorporation by primase opposite template dG (new products of altered mobility)” value was “readily incorporates”.
Turning to `Nc1nc2c(ncn2[C@H]2C[C@H](O)[C@@H](COP(=O)(O)OP(=O)(O)OP(=O)(O)O)O2)c(=O)[nH]1` [2′-dGTP], on primase (UL5/UL8/UL52) [2], the VMax was determined as 0.18 ± 0.02 pmol/h and the Michaelis constant (Km) was found to be 130 ± 80 µM. The VMax on primase (UL5/UL8/UL52) [3] amounted to 5.3 ± 0.8 pmol/min.
As a reminder, the IC50 is the concentration needed to halve the response being measured. Read a high IC50 as a need for much substance. Take `Nc1ncnc2c1ncn2[C@@H]1O[C@H](COP(=O)(O)OP(=O)(O)OP(=O)(O)O)C[C@H]1O` [3′-dATP, cordycepin triphosphate]: at primase (UL5/UL8/UL52) [5] (inhibition of ATP polymerization, 800 μM ATP, DNAT), the IC50 was 1100 ± 170 µM.
Take `Nc1nc2c(ncn2COCCOP(=O)(O)OP(=O)(O)OP(=O)(O)O)c(=O)[nH]1` [ACVTP, acyclovir triphosphate]: the IC50 on primase (UL5/UL8/UL52) [5] came out at 3200 ± 570 µM.
For the compound `Nc1ncnc2c1ncn2[C@@H]1O[C@H](COP(=O)(O)OP(=O)(O)O)[C@@H](O)[C@H]1O` [ADP], the IC50 at primase (UL5/UL8/UL52) [5] (setting [7]) is over 10000 µM.
Take `Nc1ncnc2c1ncn2[C@@H]1O[C@H](COP(=O)(O)O)[C@@H](O)[C@H]1O` [AMP]: at primase (UL5/UL8/UL52) [5] (setting [7]), the IC50 is over 10000 µM.
Take `Nc1ncnc2c1ncn2[C@@H]1O[C@H](COP(=O)(O)OP(=O)(O)OP(=O)(O)O)[C@@H](O)[C@H]1O` [ATP]: the VMax amounted to 14 ± 1.7 pmol/min on primase (UL5/UL8/UL52) [1], 0.23 ± 0.09 pmol/h at primase (UL5/UL8/UL52) [2] and 5.1 ± 1.8 pmol/min at primase (UL5/UL8/UL52) [3]. The Michaelis constant (Km) at primase (UL5/UL8/UL52) [2] is 1700 ± 960 µM.
Regarding `Nc1ncnc2c1ncn2[C@@H]1O[C@H](COP(=O)(O)OP(=O)(O)OP(=O)(O)O)[C@@H](O)[C@@H]1O` [AraATP, arabionfuranosyladenine triphosphate], the VMax on primase (UL5/UL8/UL52) [1] is 0.04 ± 0.005 pmol/min; at primase (UL5/UL8/UL52) [2] it was 0.026 ± 0.004 pmol/h; at primase (UL5/UL8/UL52) [3] it was 1.0 ± 0.16 pmol/min. The Km on primase (UL5/UL8/UL52) [2] was determined as 190 ± 110 µM.
Take `Nc1ccn([C@@H]2O[C@H](COP(=O)(O)OP(=O)(O)OP(=O)(O)O)[C@@H](O)[C@@H]2O)c(=O)n1` [AraCTP, arabinofuranosylcytosine triphosphate]: on primase (UL5/UL8/UL52) [2], the VMax was 0.30 ± 0.05 pmol/h and the Km amounted to 360 ± 190 µM. On primase (UL5/UL8/UL52) [4], the “chain termination after incorporation” value is recorded as “very strong chain termination” and the “incorporation by primase opposite template dG (new products of altered mobility)” value was “polymerized”.
In the case of `Nc1nc2c(ncn2[C@@H]2O[C@H](COP(=O)(O)OP(=O)(O)OP(=O)(O)O)[C@@H](O)[C@@H]2O)c(=O)[nH]1` [AraGTP, arabinofuranosylguanine triphosphate], on primase (UL5/UL8/UL52) [2], the VMax was 0.044 ± 0.006 pmol/h and the Km came to 300 ± 140 µM. This compound registered a VMax at primase (UL5/UL8/UL52) [3] of 4.1 ± 0.3 pmol/min.
Take `Nc1ccn([C@@H]2O[C@H](COP(=O)(O)OP(=O)(O)OP(=O)(O)O)[C@@H](O)[C@H]2O)c(=O)n1` [CTP]: on primase (UL5/UL8/UL52) [2], the VMax is 1.2 ± 0.16 pmol/h and the Michaelis constant (Km) stood at 1100 ± 280 µM. Also, the “primers elongated after incorporation of the nucleotide” value on primase (UL5/UL8/UL52) [4] (template d(GTCT)15) stood at 75%. The “incorporation by primase opposite template dG (new products of altered mobility)” value on primase (UL5/UL8/UL52) [4] is recorded as “readily incorporates”.
`Nc1nc(O)c2ncn(COC(CO)COP(=O)(O)OP(=O)(O)OP(=O)(O)O)c2n1` (centres unmarked) [GCVTP, ganciclovir triphosphate] showed an IC50 against primase (UL5/UL8/UL52) [5] (setting [8]) of 3400 ± 880 µM.
With `Nc1nc2c(ncn2[C@@H]2O[C@H](COP(=O)(O)OP(=O)(O)O)[C@@H](O)[C@H]2O)c(=O)[nH]1` [GDP], at primase (UL5/UL8/UL52) [5], the “type of inhibition with respect to GTP incorporation” value is “competitive”. Moreover, on primase (UL5/UL8/UL52) [5] (setting [9]), half-maximal inhibition (IC50) was put at 4400 ± 650 µM.
Turning to `Nc1nc2c(ncn2[C@@H]2O[C@H](COP(=O)(O)O)[C@@H](O)[C@H]2O)c(=O)[nH]1` [GMP], half-maximal inhibition on primase (UL5/UL8/UL52) [5] (setting [9]) (IC50) was put at 3800 ± 540 µM.
Consider `Nc1nc2c(ncn2[C@@H]2O[C@H](COP(=O)(O)OP(=O)(O)OP(=O)(O)O)[C@@H](O)[C@H]2O)c(=O)[nH]1` [GTP], for which the VMax at primase (UL5/UL8/UL52) [1] was found to be 1.1 ± 0.27 pmol/min; on primase (UL5/UL8/UL52) [2], 0.060 ± 0.012 pmol/h; at primase (UL5/UL8/UL52) [3] it was 9.5 ± 1.3 pmol/min. For the same compound, at primase (UL5/UL8/UL52) [2], the Km is 230 ± 170 µM.
With `Nc1ccn(C2SC(COP(=O)(O)OP(=O)(O)OP(=O)(O)O)C(O)C2O)c(=O)n1` (centres unmarked) [SaraCTP, 4′-thio-arabinofuranosylcytosine triphosphate], at primase (UL5/UL8/UL52) [4], the “chain termination after incorporation” value was “very strong chain termination” and the “incorporation by primase opposite template dG (new products of altered mobility)” value is “polymerized”.
Consider `Nc1ccn([C@@H]2O[C@H](COP(=O)(O)OP(=O)(O)OP(=O)(O)O)[C@@H](O)C2(F)F)c(=O)n1` [dFdCTP, 2′,2′-Difluoro-2′-deoxycytidine triphosphate], for which the “primers elongated after incorporation of the nucleotide” value at primase (UL5/UL8/UL52) [4] (template d(GTCT)15) worked out at 11%. Moreover, the inhibition of primase entry against primase (UL5/UL8/UL52) [4] (800 μM, template d(GTCT)15) was “relatively strong inhibition”. At primase (UL5/UL8/UL52) [4], the “chain termination after incorporation” value is reported as “strong chain termination” and the “incorporation by primase opposite template dG (new products of altered mobility)” value was “polymerized”.
For `Nc1ncnc2c1ncn2[C@H]1CC[C@@H](COP(=O)(O)OP(=O)(O)OP(=O)(O)O)O1` [ddATP], the IC50 against primase (UL5/UL8/UL52) [5] (IC50, inhibition of ATP polymerization, 800 μM ATP, DNAT) worked out at 1700 ± 110 µM; against primase (UL5/UL8/UL52) [5] (setting [10]), 2400 ± 900 µM.
Compound `Nc1ccn([C@H]2CC[C@@H](COP(=O)(O)OP(=O)(O)OP(=O)(O)O)O2)c(=O)n1` [ddCTP] had an IC50 against primase (UL5/UL8/UL52) [5] (setting [10]) of 800 ± 120 µM. In addition, the “incorporation by primase opposite template dG (new products of altered mobility)” value at primase (UL5/UL8/UL52) [4] is recorded as “does not readily incorporate”. The inhibition of primase against primase (UL5/UL8/UL52) [4] (template d(GTCT)15, increased ddCTP concentration, data not shown) is on record as over 90%.
For the compound `Nc1nc2c(ncn2[C@H]2CC[C@@H](COP(=O)(O)OP(=O)(O)OP(=O)(O)O)O2)c(=O)[nH]1` [ddGTP], at primase (UL5/UL8/UL52) [6] (template C20GCCCTA15, increasing ddGTP up to 2 mM), the “inhibition of primase activity” value was “up to 90%”. The “incorporation by primase as third and later nucleotide (new products)” value on primase (UL5/UL8/UL52) [6] (template C20GCCCTA15 for GTP analogues, ATP, [α-32P]GTP, partly data not shown) is given as “no new products”. The “type of inhibition with respect to GTP incorporation” value at primase (UL5/UL8/UL52) [5] is reported as “competitive”. This compound also had an IC50 against primase (UL5/UL8/UL52) [5] (setting [8]) of 1100 ± 180 µM.
